Test results published in patent US8835425B2, “Use of selective GABA A α5 negative allosteric modulators for the treatment of central nervous system conditions” (Hoffmann-La Roche Inc., priority 2010, dated 2014).

Columns and labels:
human GABA A α3β3γ2 = human GABA A α3β3γ2 (Homo sapiens, UniProt P18507+P34903); assay: Two-microelectrode voltage clamp, modulation of GABA EC10 response in Xenopus oocytes, α3β3γ2; format: cell-based; parameters: expressed in transfected cells; host or cells: Xenopus laevis oocytes; conditions: % change of EC10 GABA response at 3 μM or at 30×Ki if Ki below 0.1 μM
Chain of human GABA A α3β3γ2 (P34903 29-492): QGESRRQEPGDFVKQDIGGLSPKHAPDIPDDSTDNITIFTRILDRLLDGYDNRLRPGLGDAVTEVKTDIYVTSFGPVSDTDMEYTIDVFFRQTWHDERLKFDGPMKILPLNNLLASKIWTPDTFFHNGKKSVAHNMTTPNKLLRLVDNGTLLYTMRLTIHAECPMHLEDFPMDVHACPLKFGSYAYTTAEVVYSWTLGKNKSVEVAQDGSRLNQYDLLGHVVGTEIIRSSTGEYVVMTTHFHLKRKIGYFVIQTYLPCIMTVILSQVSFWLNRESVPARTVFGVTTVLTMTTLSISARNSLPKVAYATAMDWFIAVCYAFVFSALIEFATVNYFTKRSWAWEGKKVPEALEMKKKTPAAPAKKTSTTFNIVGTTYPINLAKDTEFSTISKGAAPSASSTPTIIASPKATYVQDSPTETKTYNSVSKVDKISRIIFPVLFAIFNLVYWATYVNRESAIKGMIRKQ
Chain of human GABA A α3β3γ2 (P28472 26-473 partner): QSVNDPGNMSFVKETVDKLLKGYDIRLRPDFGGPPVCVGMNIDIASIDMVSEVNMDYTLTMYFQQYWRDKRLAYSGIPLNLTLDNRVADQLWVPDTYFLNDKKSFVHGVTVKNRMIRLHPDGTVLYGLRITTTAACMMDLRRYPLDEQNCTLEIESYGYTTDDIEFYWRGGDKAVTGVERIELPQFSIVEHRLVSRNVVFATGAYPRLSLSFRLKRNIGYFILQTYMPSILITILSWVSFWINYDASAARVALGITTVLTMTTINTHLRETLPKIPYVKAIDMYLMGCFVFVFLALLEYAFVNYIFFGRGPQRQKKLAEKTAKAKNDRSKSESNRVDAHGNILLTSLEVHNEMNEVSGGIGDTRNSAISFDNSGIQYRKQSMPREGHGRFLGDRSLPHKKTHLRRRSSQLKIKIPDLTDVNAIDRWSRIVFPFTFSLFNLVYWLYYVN
Chain of human GABA A α3β3γ2 (P18507 40-475): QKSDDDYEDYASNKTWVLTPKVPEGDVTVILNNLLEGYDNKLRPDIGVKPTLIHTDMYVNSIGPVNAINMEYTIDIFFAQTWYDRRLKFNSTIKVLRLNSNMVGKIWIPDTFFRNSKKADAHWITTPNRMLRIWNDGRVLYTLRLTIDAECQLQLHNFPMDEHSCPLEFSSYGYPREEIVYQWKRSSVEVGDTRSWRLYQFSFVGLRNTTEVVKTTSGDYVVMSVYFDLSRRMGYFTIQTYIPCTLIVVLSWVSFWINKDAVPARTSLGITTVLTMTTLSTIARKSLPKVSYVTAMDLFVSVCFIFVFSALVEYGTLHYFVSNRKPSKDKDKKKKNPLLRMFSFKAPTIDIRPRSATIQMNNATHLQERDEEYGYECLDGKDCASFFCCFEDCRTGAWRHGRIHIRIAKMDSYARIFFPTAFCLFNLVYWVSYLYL
Experimental: Table 2b. […] Effect at human GABA A α5 receptors: % change of a submaximal (EC10) response to GABA determined at 30×Ki value from the flumazenil binding assay.
Subtype-selective effects were determined on cloned receptors expressed in Xenopus oocytes. Human recombinant GABA A receptors were expressed in Xenopus laevis oocytes. Current responses were evoked in two-microelectrode voltage-clamp condition by applying an EC10 of GABA before and during the co-application of the test compound. Response amplitudes in the presence of the test compound are expressed as percentage of the amplitudes before drug addition.

Ts65Dn and control mice [1] = assay: Exploratory activity: hole board; format: in vivo; conditions: 20 mg/kg p.o. chronic; for ABA index / Crossings / Number of Head-dippings / Rearings / Time exploring holes: hole board
Experimental: (§1) For mice studies, active pharmaceutical compounds of present invention were formulated in chocolate-milk (Puleva, Barcelona, Spain). Active pharmaceutical compounds of present invention or vehicle were administered p.o. at a dose of 20 mg/kg for six weeks. Their administration was prolonged during the 30 days of the behavioral assessment.
The hole board is a wooden box (32×32×30 cm) with four holes. The floor is divided into nine 10 cm squares. In a single 5 minute trial the number of explorations, the time spent exploring each hole, and overall activity in the apparatus were measured. A repetition index was also calculated (exploration of holes previously explored) as a function of the number of ABA alternations.

Ts65Dn and control mice [2] = assay: Sensorimotor test battery; format: in vivo; conditions: 20 mg/kg p.o. chronic; for Auditory startle / Equilibrium aluminium bar / Equilibrium wooden bar / Grip strength / Prehensile reflex / Righting reflex / Traction capacity / Vision: mean score; for effect on sensorimotor abilities: Ts65Dn or control mice
Experimental: as §1
A battery of sensorimotor tests was performed following the procedure described by Rueda N et al. [Neurosci Leu (2008) 433(1):22-27]. In the visual placing reflex test, cerebellar and vestibular functions were evaluated. […] The response of forepaw extension was scored on a 0-4 scale [4: animal extends the forepaws when placed at the highest height; 3: forepaws extended before touching the surface with vibrissae; 2: forepaws extended after vibrissae touched the surface; 1: forepaws extended after the nose touched the surface; 0: no extension].
To evaluate auditory sensitivity, the startle response to a sudden auditory stimulus was measured. Mice were placed facing the wall of an unfamiliar cage and the auditory stimulus was generated by clapping together two stainless steel forceps (7 cm long). A score (0-3 points) was assigned based on the magnitude of the response: jumping more than 1 cm (3 points); jumping less than 1 cm (2 points); retracting of the ears (Preyer reflex, 1 point); or no response (0 points).
The vibrissa placing reflex was analyzed by noting the reflective reaction to touching the vibrissae with a cotton stick. In three consecutive trials, a score of 1 was assigned to animals that touched the stimulated vibrissae with an ipsilateral paw, and 0 if there was no response. Grip strength was assessed by quantifying the resistance to being separated from a lid of aluminum bars (2 mm), when dragged by the tail (0: no resistance, total loss of grip strength; 1: slight; 2: moderate; 3: active; 4: extremely active resistance, normal grip strength).
In order to evaluate equilibrium, four 20-s trials of balance were performed on an elevated (40 cm high), horizontal (50 cm long) rod. Trials 1 and 2 were performed on a flat wooden rod (9 mm wide); trials 3 and 4 were performed on a cylindrical aluminum rod (1 cm diameter). In each trial, the animals were placed in a marked central zone (10 cm) on the elevated rod. A score of 0 was given if the animal fell within 20 s, 1 if it stayed within the central zone for >20 s, 2 if it left the central zone, and 3 if it reached one of the ends of the bar.
Prehensile reflex (three 5-s trials) was measured as the ability of the animal to remain suspended by the forepaws by grasping an elevated horizontal wire (2 mm in diameter). The maximum possible score of 3 was achieved when the animal remained suspended by the forepaws in all three trials (one point per trial). Traction capacity was scored at the same time by assessing the number of hind limbs that the animal raised to reach the wire (0: none; 1: one limb; 2: two limbs).

Ts65Dn and control mice [3] = assay: Spatial learning: Morris water maze; format: in vivo; conditions: 20 mg/kg p.o. chronic; for Ts65Dn mice performance in MWM acquisition sessions / control mice performance in MWM acquisition sessions: vs vehicle; for latency to reach the platform during cued sessions: in Ts65Dn but not in control mice
Experimental: as §1
To evaluate spatial learning the Morris Water Maze was used. The apparatus was a circular tank of 110 cm in diameter, full of water (22-24° C.) made opaque by the addition of powdered milk. Inside the tank, a platform was hidden 1 cm below the water level. Animals were tested at the end of the treatment period in 12 consecutive daily sessions: 8 acquisition sessions (platform submerged), followed by 4 cued sessions (platform visible). All trials were videotaped with a camera located 2 m above the water level. A SMART computerized tracking system (Panlab S. A., Barcelona, Spain) was used to analyze the mouse trajectories, measure escape latency, distance traveled, and swimming speed for each animal in each trial.
In the acquisition sessions (S1-S8), the platform was hidden 1 cm below the water level. From one daily session to the next, the platform was placed in a different location (E, SW, center, and NW); each position was used once every four consecutive daily sessions. Each of the 8 acquisition and 4 cued sessions (one session per day) consisted of four pairs of trials, 30-45 min apart. For each trial pair, the mice were randomly started from one of four positions (N, S, E, W), which was held constant for both trials. The first trial of a pair was terminated when the mouse located the platform or when 60 s had elapsed; the second trial commenced following a period of 20 s, during which the animal was allowed to stay on the platform. Several fixed cues outside of the maze were constantly visible from the pool.
During the cued sessions the platform was visible: the water level was 1 cm below the platform, and its position was indicated with a flag. Eight trials were performed during each session, following the same experimental procedure as in the acquisition sessions.

## FC(F)c1ncn2c1Cn1ncnc1-c1cc(Br)ccc1-2 [Compound 8581, 3-Bromo-10-difluoromethyl-9H-imidazo[1,5-a][1,2,4]triazolo[1,5-d][1,4]benzodiazepine]
Human GABA A α3β3γ2
  Efficacy GABA A α3β3γ2: −1%
Ts65Dn and control mice [1]; Ts65Dn mice
  hyperactivity (crossings) of Ts65Dn mice in hole board: reduced this hyperactivity
  normalization of ABA index of Ts65Dn mice: normalized
  ABA index: 3.89
  Crossings: 106.11
  Number of Head-dippings: 18.22
  Rearings: 20.67
  Time exploring holes: 26.28
Ts65Dn and control mice [1]; control mice
  ABA index: 2.64
  Crossings: 73.27
  Number of Head-dippings: 14.82
  Rearings: 17.73
  Time exploring holes: 30.43
Ts65Dn and control mice [2]; Ts65Dn mice
  Latency arrival coat hanging: 35.44
  Latency to fall aluminium bar: 12.11
  Latency to fall wooden bar: 17.77
  Number of crossings coat hanging: 3.33
  Auditory startle: 1.33
  Equilibrium aluminium bar: 1.00
  Equilibrium wooden bar: 3.55
  Grip strength: 2.00
  Prehensile reflex: 2.67
  Righting reflex: 3.00
  Traction capacity: 1.67
  Vision: 7.67
Ts65Dn and control mice [2]
  effect on sensorimotor abilities: did not modify any of the sensorimotor abilities tested
Ts65Dn and control mice [2]; control mice
  Latency arrival coat hanging: 46.45
  Latency to fall aluminium bar: 14.73
  Latency to fall wooden bar: 20.00
  Number of crossings coat hanging: 2.64
  Auditory startle: 1.00
  Equilibrium aluminium bar: 1.36
  Equilibrium wooden bar: 2.8
  Grip strength: 1.55
  Prehensile reflex: 2.45
  Righting reflex: 3.00
  Traction capacity: 1.82
  Vision: 7.64
Ts65Dn and control mice [3]
  difference between Ts65Dn and control learning curves in MWM: reduced
  Ts65Dn mice performance in MWM acquisition sessions: significantly improved Ts65Dn mice performance
  control mice performance in MWM acquisition sessions: did not significantly affect control mice performance
  latency to reach the platform during cued sessions: reduced the latency to reach the platform

## Cc1onc(-c2ccc(F)cc2)c1COc1ccc(C(=O)N2CCS(=O)(=O)CC2)cn1 [Compound R1, (1,1-Dioxo-1,6-thiomorpholin-4-yl)-{6-[3-(4-fluoro-phenyl)-5-methyl-isoxazol-4-ylmethoxy]-pyridin-3-yl}-methanone]
Human GABA A α3β3γ2
  Efficacy GABA A α3β3γ2: −2%
Ts65Dn and control mice [1]; Ts65Dn mice
  hyperactivity (crossings) of Ts65Dn mice in hole board: reduced this hyperactivity
  ABA index: 4.25
  Crossings: 93.19
  Number of Head-dippings: 20.50
  Rearings: 13.19
  Time exploring holes: 37.58
Ts65Dn and control mice [1]; control mice
  ABA index: 4.06
  Crossings: 72.13
  Number of Head-dippings: 16.13
  Rearings: 13.86
  Time exploring holes: 28.28
Ts65Dn and control mice [2]; Ts65Dn mice
  Latency arrival coat hanging: 37.37
  Latency to fall aluminium bar: 13.71
  Latency to fall wooden bar: 20.00
  Number of crossings coat hanging: 3.19
  Auditory startle: 1.31
  Equilibrium aluminium bar: 1.13
  Equilibrium wooden bar: 3.19
  Grip strength: 1.75
  Prehensile reflex: 2.75
  Righting reflex: 3.00
  Traction capacity: 2.50
  Vision: 9.19
Ts65Dn and control mice [2]
  effect on sensorimotor abilities: did not modify any of the sensorimotor abilities tested
Ts65Dn and control mice [2]; control mice
  Latency arrival coat hanging: 30.93
  Latency to fall aluminium bar: 11.16
  Latency to fall wooden bar: 20.00
  Number of crossings coat hanging: 2.73
  Auditory startle: 1.00
  Equilibrium aluminium bar: 0.80
  Equilibrium wooden bar: 2.53
  Grip strength: 2.2
  Prehensile reflex: 2.53
  Righting reflex: 3.00
  Traction capacity: 1.80
  Vision: 8.40
Ts65Dn and control mice [3]
  difference between Ts65Dn and control learning curves in MWM: reduced
  Ts65Dn mice performance in MWM acquisition sessions: improved Ts65Dn mice cognition
  control mice performance in MWM acquisition sessions: did not significantly affect control mice performance
  latency to reach the platform during cued sessions: reduced the latency to reach the platform
